Values of other authors as cited in patent publication US7015235B2, “Acylated piperidine derivatives as melanocortin-4 receptor agonists” (priority 2001, dated 2006).

Test system: men

## Cc1ccc(N(CC2=NCCN2)c2cccc(O)c2)cc1 [phentolamine]
After an oral dose
  duration of effect: 2 h
  onset of action: 5 to 30 min
oral
  share of men/patients with adequate response: 35–40%
